Measurements as given in patent US11464867B2, “Multimeric elastin-like polypeptides” (University of Southern California, priority 2018, dated 2022).
Read-outs that look alike come from different tables or passages of the source. Values belong to the molecule of their own block, whether it stands above or below them.

Tests used:
[1] = CsA encapsulation by two-phase solvent evaporation, RP-HPLC; format: physicochemical; details: FIG. 16
Procedure: The mixture was incubated at 37° C. and samples were collected at different time points up to 48 h.
This was followed by high-speed centrifugation and filtration to remove the excess insoluble drug. […] The mobile phase flow rate was set to 1.0 ml/min. The linear gradient from 20% to 95% of methanol was applied from 0 to 5 min. Then the mobile phase was changed to 95% methanol isocratic flow for 10 min.
This was followed by high-speed centrifugation and filtration to remove the excess insoluble drug. The loading ratio was then determined by reversed-phase high-performance liquid chromatography (RP-HPLC) analysis method.
The drug loading capability of 2nd and 3rd generation carriers were also tested using the same encapsulation method detailed above employing the method of Shi, et al., 2013.

[2] = Phase transition temperature by optical density (UV-Vis, 350 nm) versus temperature; format: physicochemical; details: 25 μM; Table 5
Procedure: The temperature with the maximum positive slope was defined as the phase transition temperature for each condition. (FIG. 2B) The concentration-temperature phase diagram was determined for both ELPs, and fit to the following equation: Tt=b−m Log10[CELP].
Both ELPs at different concentrations (5 μM to 100 μM) were subject to a precisely controlled temperature increase from 25 to 75° C. at a rate of 1° C./min. The Tt of ELPs is defined as the temperature at which the first derivative of the optical density with respect to the temperature reaches a maximum.

[3] = Isothermal titration calorimetry of 5FA/Rapa interaction; format: binding; details: ITC
Excerpt: Using Isothermal Titration calorimetry (ITC), the binding stoichiometry of 5FA/Rapa interaction was estimated to be 5. […] An overall negative Gibbs free energy (−10 kJ/mol interactions) indicates FKBP/Rapa binding is thermodynamically favorable.

[4] = biological target: Pin1 (Homo sapiens, UniProt Q13526); details: cited from earlier work
[5] = cited from earlier work
[6] = system: IL-2 secretion, Jurkat cells; assay: IL-2 secretion assay in activated Jurkat cells (ELISA); format: cell-based; details: Homo sapiens, n=3, mean±SD
Procedure: Upon stimulation, Jurkat cells produce IL-2.
IL-2 concentration in culture media is then assessed using ELISA assay.

[7] = Multivariate fit of the phase diagram of ELP monoblock copolymers; format: physicochemical
Excerpt: The Tt of the ELP component can be modified by varying ELP chain length, as the Tt generally increases with decreasing MW. For polypeptides having a molecular weight >100,000, the hydrophobicity scale developed by Urry et al. (PCT/US96/05186, which is hereby incorporated by reference in its entirety) is preferred for predicting the approximate Tt of a specific ELP sequence. However, in some embodiments, ELP component length can be kept relatively small, while maintaining a target Tt, by incorporating a larger fraction of hydrophobic guest residues (e.g., amino acid residues having hydrophobic side chains) in the ELP sequence. For polypeptides having a molecular weight <100,000, the Tt may be predicted or determined by the following function:
[formula] where Tc is a critical transition temperature, m is the dependence on the natural logarithm of concentration, n is the dependence on the inverse of the ELP length l, and k is an interaction term between length and concentration.

Sequence of Pin1 (Q13526 whole entry): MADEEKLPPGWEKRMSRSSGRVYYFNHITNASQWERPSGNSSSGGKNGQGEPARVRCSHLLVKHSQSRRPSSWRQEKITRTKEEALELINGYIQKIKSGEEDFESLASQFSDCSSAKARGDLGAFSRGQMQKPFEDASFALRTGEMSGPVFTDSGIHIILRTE

Molecule: 3(CA)C: 3rd generation carrier CypA-A24-CypA-A24-CypA-A24-CypA, SEQ ID NO: 9
CsA loading ratio [1]: 209.0%

binding enthalpy [3]: −58 kJ/mol interactions
Kd ([3]; true KD likely lower, beyond limit of detection, read-out: equilibrium dissociation constant (KD)): ≤ 1.5 nM
Molecule: 5FA: 5 FKBP domains linked by ELP A24, SEQ ID NO: 10
Transition temperature at 25 μM [2]: 53.2 °C
Gibbs free energy [3]: −10 kJ/mol interactions
TAS [3]: −48 kJ/mol interactions

Molecule: 5FV: 5 FKBP domains linked by ELP V24, SEQ ID NO: 11
Transition temperature at 25 μM [2]: 27.7 °C

Molecule: CC1=C(/C=C/C(C)=C/C=C/C(C)=C/C(=O)O)C(C)(C)CCC1 [ATRA, All trans retinoic acid]
affinity to Pin1 [4]: sun-micromolar affinity
AUC on 28th day of administration relative to AUC on day 1 ([5]; daily treatment): 10%
half-life ([5]; in vivo): 45 min

IC50 ([6]; PMA and Ionomycin, 6 h, read-out: IC50, IL-2 secretion assay): 0.522 ± 0.152 nM
IC50 ([6]; FIG. 10 legend, read-out: IC50, IL-2 inhibition): 0.522 ± 0.152 nM
Molecule: C/C=C/C[C@@H](C)[C@@H](O)[C@H]1C(=O)N[C@@H](CC)C(=O)N(C)CC(=O)N(C)[C@@H](CC(C)C)C(=O)N[C@@H](C(C)C)C(=O)N(C)[C@@H](CC(C)C)C(=O)N[C@@H](C)C(=O)N[C@H](C)C(=O)N(C)[C@@H](CC(C)C)C(=O)N(C)[C@@H](CC(C)C)C(=O)N(C)[C@@H](C(C)C)C(=O)N1C [CsA, Cyclosporin A]

Molecule: (Val-Pro-Gly-Ala-Gly): ELP monoblock library, SEQ ID NO: 61 (VPGAG)
Tc ([7]; critical transition temperature): 40.5 ± 1.6 °C
n ([7]; dependence on inverse of ELP length): 7009 ± 345 °C pentamers
m ([7]; dependence on natural logarithm of concentration): 0 ° C./ln(μM)
K ([7]; interaction term between length and concentration): −850.1 ± 51.5 °C pentamers/ln(μM)
